How the values were obtained:
[1] = Research on compound microsome: prototype remaining and transformation to Atrasentan in human liver microsomes (+NADPH); assay type: in vitro ADME; conditions: for Prototype remaining quantity (%) Mean: human liver microsome (+NADPH), 37° C.
Method: Human liver microsomes were all purchased from Rild Liver Disease Research (Shanghai) Co., Ltd.
Reagents: dimethyl sulfoxide (DMSO), acetonitrile, formic acid, and propranolol (internal standard) are all commercially available.
Instrument: Thermo Fisher Scientific LC-MS (U300 UPLC, TSQ QUANTUMN ULTRA triple quadrupole mass spectrometer).
A certain amount of compound was precisely weighed and dissolved in DMSO to prepare a 10 mM stock solution, and the stock solution was diluted with a diluent (ACN:H2O=1:1) to a 100 μM working solution, and then diluted with a 0.1 M potassium phosphate buffer solution to a 3 μM administration solution for later use. 75 μL of liver microsomes were taken and added into 925 μL of a 0.1 M potassium phosphate buffer solution to be mixed uniformly to obtain a 1.5 mg/mL liver microsome suspension, and the liver microsome suspension was pre-incubated at 37° C. for 10 minutes. Preparation at 0 o'clock: 15 μL of the above liver microsome suspension was taken and added into a 6 mM NADPH solution, 150 μL of a propranolol acetonitrile solution was added immediately for precipitation, and then 15 μL of the above administration solution was added and mixed uniformly for later use. Preparation of samples at 20 minutes and 60 minutes: 15 μL of the administration solution was taken, 15 μL of the liver microsome suspension and 15 μL of the 6 mM NADPH solution were added and mixed uniformly, and a mixture was incubated at 37° C. for 20 minutes and 60 minutes, respectively. The preparation of the above samples was carried out using dual-pore parallel operation. When the above samples are incubated to the relevant time point, 150 μL of the propranolol acetonitrile solution was added to terminate the reaction. All the above samples were centrifuged at 4000 rpm for 5 minutes, and 100 μL of a supernatant was taken, added into 100 μL of ultrapure water and mixed uniformly for LC-MS/MS analysis. LC-MS/MS detection conditions are as follows:
Chromatographic column: Waters ACQUITY™ PREMIER HSS T3, 50*2.1 mm, 1.8 μm.
(§1) Mobile phase: water (0.1% formic acid)—acetonitrile. Perform gradient elution according to the table below.
An initial 0 o'clock was taken as 100%, a relative residual content of the drug at each time point was calculated, and each time point of Atrasentan was taken as 100% to calculate the relative amount of transformation of the compound in the embodiment to Atrasentan.

[2] = Pharmacokinetic study of compound in rats (Embodiment 13), intragastric administration; assay type: in vivo; conditions: SD rats
Text: SD rats: male, 200-300 g, purchased from Beijing Vital River Laboratory Animal Technology Co., Ltd.
Reagents: dimethyl sulfoxide (DMSO), polyethylene glycol 400 (PEG-400), normal saline, heparin, acetonitrile, formic acid, and propranolol (internal standard) are all commercially available.
Instrument: Thermo Fisher Scientific LC-MS/MS (U300 UPLC, TSQ QUANTUMN ULTRA triple quadrupole mass spectrometer).
The compound was weighed and dissolved in a DMSO-PEG-400-normal saline (5:60:35, v/v/v) system. After intragastric administration to rats, 200 μL of venous blood was collected in a sodium-fluoride heparinized EP tube at 15 minutes, 30 minutes, 1 hour, 2 hours, 5 hours, 7 hours, and 24 hours after administration and centrifuged at 12000 rpm for 2 minutes. Plasma was taken and frozen and preserved at −80° C. for testing. A certain amount of samples for test was precisely weighed and dissolved in DMSO to 2 mg/mL as a stock solution. An appropriate amount of compound stock solution was accurately sucked, and diluted by adding acetonitrile to prepare a standard series solution. 20 μL of each of the above standard series solution was accurately sucked, 180 μL of blank plasma was added, and vortex mixing was performed to prepare plasma samples equivalent to plasma concentrations of 1 ng/mL, 3 ng/mL, 5 ng/mL, 10 ng/mL, 30 ng/mL, 100 ng/mL, 300 ng/mL, 1000 ng/mL, and 3000 ng/mL. Dual sample analysis was performed for each concentration to establish a standard curve. 30 μL of plasma was taken, 200 μL of an acetonitrile solution of internal standard propranolol (50 ng/mL) was added, vortex mixing was performed, then 100 μL of purified water was added, vortex mixing was performed again, a mixture was centrifuged at 4000 rpm for 5 minutes, and a supernatant was taken for LC-MS/MS analysis. LC-MS/MS detection conditions are as follows: Chromatographic column: Waters ACQUITY™ PREMIER HSS T3, 50*2.1 mm, 1.8 μm.
as §1
After LC-MS/MS detection of blood drug concentration, WinNonlin 6.1 software was used to calculate pharmacokinetic parameters using a non compartmental model method.

[3] = Study on stability of salts (chemical stability by HPLC); assay type: physicochemical
[4] = Study on hygroscopicity by dynamic vapor sorption (DVS); assay type: physicochemical
Method: Hygroscopicity of sulphate, phosphate, hydrochloride, and oxalate was evaluated using a dynamic vapor sorption (DVS). The test collected percentage changes in mass of samples under a constant temperature condition of 25° C. with changes in humidity.

Prototype remaining quantity (%) Mean ([1]; time 0 min (taken as 100%)) [%]	Prototype remaining quantity (%) Mean ([1]; time 20 min) [%]	Prototype remaining quantity (%) Mean ([1]; time 60 min) [%]	Compound	further results
100.0	0.1	0.0	CCCCN(CCCC)C(=O)CN1C[C@H](c2ccc3c(c2)OCO3)[C@@H](C(=O)OC(C)OC(=O)OC[C@H]2COCCO2)[C@@H]1c1ccc(OC)cc1 (stereo partly drawn) [Compound 9, 1-(((((R)-1,4-dioxane-2-yl)methoxy)carbonyl)oxy)ethyl-(2R,3R,4S)-4-(benzo[d][1,3]dioxolane-5-yl)-1-[2-(dibutylamino)-2-oxoethyl]-2-(4-methoxyphenyl)pyrrolidine-3-carboxylate]	
100.0	67.8	1.6	CCCCN(CCCC)C(=O)CN1C[C@H](c2ccc3c(c2)OCO3)[C@@H](C(=O)OC(C)OC(=O)OCC)[C@@H]1c1ccc(OC)cc1 (stereo partly drawn) [Compound 2, 1-[(ethoxycarbonyl)oxy]ethyl(2R,3R,4S)-4-(benzo[d][1,3]dioxolane-5-yl)-1-[2-(dibutylamino)-2-oxoethyl]-2-(4-methoxyphenyl)pyrrolidine-3-carboxylate]	
100.0	0.5	0.7	CCCCN(CCCC)C(=O)CN1C[C@H](c2ccc3c(c2)OCO3)[C@@H](C(=O)OCOC(=O)OCC)[C@@H]1c1ccc(OC)cc1 [Compound 1, 1-[(ethoxycarbonyl)oxy]methyl-(2R,3R,4S)-4-(benzo[d][1,3]dioxolane-5-yl)-1-[2-(dibutylamine)-2-oxoethyl]-2-(4-methoxyphenyl)pyrrolidine-3-carboxylate]	
100.0	0	0	CCCCN(CCCC)C(=O)CN1C[C@H](c2ccc3c(c2)OCO3)[C@@H](C(=O)OC(C)OC(=O)OC)[C@@H]1c1ccc(OC)cc1 (stereo partly drawn) [Compound 4, 1-[(methoxycarbonyl)oxy]ethyl-(2R,3R,4S)-4-(benzo[d][1,3]dioxolane-5-yl)-1-[2-(dibutylamino)-2-oxoethyl]-2-(4-methoxyphenyl)pyrrolidine-3-carboxylate]	Absorption after intragastric administration compared with Atrasentan (in words) [2]: better than that of Atrasentan; Exposure level in rats compared with the same dosage of Atrasentan (in words) [2]: higher than those of the same dosage of Atrasentan
100.0	0	0	CCCCN(CCCC)C(=O)CN1C[C@H](c2ccc3c(c2)OCO3)[C@@H](C(=O)OC(C)OC(=O)OCCNC)[C@@H]1c1ccc(OC)cc1 (stereo partly drawn) [Compound 5, 1-(((2-(methylamino)ethoxy)carbonyl)oxy)ethyl-(2R,3R,4S)-4-(benzo[d][1,3]dioxolane-5-yl)-1-[2-(dibutylamino)-2-oxoethyl]-2-(4-methoxyphenyl)pyrrolidine-3-carboxylate]	
100.0	0.04	0.03	CCCCN(CCCC)C(=O)CN1C[C@H](c2ccc3c(c2)OCO3)[C@@H](C(=O)OC(C)OC(=O)OCCO)[C@@H]1c1ccc(OC)cc1 (stereo partly drawn) [Compound 8, 1-(((2-hydroxyethoxy)carbonyl)oxy)ethyl-(2R,3R,4S)-4-(benzo[d][1,3]dioxolane-5-yl)-1-[2-(dibutylamino)-2-oxoethyl]-2-(4-methoxyphenyl)pyrrolidine-3--carboxylate]	
100.0	0.04	0.06	CCCCN(CCCC)C(=O)CN1C[C@H](c2ccc3c(c2)OCO3)[C@@H](C(=O)OC(C)OC(=O)OC(C)C)[C@@H]1c1ccc(OC)cc1 (stereo partly drawn) [Compound 3, 1-[(isopropoxycarbonyl)oxy]ethyl-(2R,3R,4S)-4-(benzo[d][1,3]dioxolane-5-yl)-1-[2-(dibutylamino)-2-oxoethyl]-2-(4-methoxyphenyl)pyrrolidine-3-carboxylate]	Conversion into Atrasentan in human microsomes (in words) ([1]; human liver microsomes): fully converted into Atrasentan; Absorption after intragastric administration compared with Atrasentan (in words) [2]: better than that of Atrasentan; Exposure level in rats compared with the same dosage of Atrasentan (in words) [2]: higher than those of the same dosage of Atrasentan
100.0	0.0	0.0	CCCCN(CCCC)C(=O)CN1C[C@H](c2ccc3c(c2)OCO3)[C@@H](C(=O)OC(C)OC(=O)OC2COC2)[C@@H]1c1ccc(OC)cc1 (stereo partly drawn) [Compound 10, 1-((((oxetane-3-yl)oxy)carbonyl)oxy)ethyl-(2R,3R,4S)-4-(benzo[d][1,3]dioxolane-5-yl)-1-[2-(dibutylamino)-2-oxoethyl]-2-(4-methoxyphenyl)pyrrolidine-3-carboxylate]	
			CCCCN(CCCC)C(=O)CN1C[C@H](c2ccc3c(c2)OCO3)[C@@H](C(=O)OC(C)OC(=O)OC(C)C)[C@@H]1c1ccc(OC)cc1.O=C(O)C(=O)O (some centres unmarked) [Oxalate]	Stability (in words) ([3]; 25° C./60% RH and 40° C./75% RH, one week): good stability; Purity (area %) ([3]; 25° C./60% RH, one week): 99.39 area %; Purity (area %) ([3]; 40° C./75% RH, one week): 98.52 area %; Purity (area %) ([3]; Start): 99.56 area %; Hygroscopicity (in words) ([4]; 25° C.): lower hygroscopicity; Vapor sorption ([4]; 25° C./80% RH): 0.96%
100.0	0.0	0.7	CCCCN(CCCC)C(=O)CN1C[C@H](c2ccc3c(c2)OCO3)[C@@H](C(=O)OC(C)OC(=O)OC[C@@H](O)CO)[C@@H]1c1ccc(OC)cc1 (stereo partly drawn) [Compound 6, 1-((((S)-2,3-dihydroxypropoxy)carbonyl)oxy)ethyl-(2R,3R,4S)-4-(benzo[d][1,3]dioxolane-5-yl)-1-[2-(dibutylamino)-2-oxoethyl]-2-(4-methoxyphenyl)pyrrolidine-3-carboxylate]	
100.0	0.5	0.0	CCCCN(CCCC)C(=O)CN1C[C@H](c2ccc3c(c2)OCO3)[C@@H](C(=O)OC(C)OC(=O)OC[C@@H]2COCCO2)[C@@H]1c1ccc(OC)cc1 (stereo partly drawn) [Compound 11, 1-(((((S)-1,4-dioxane-2-yl)methoxy)carbonyl)oxy)ethyl-(2R,3R,4S)-4-(benzo[d][1,3]dioxolane-5-yl)-1-[2-(dibutylamino)-2-oxoethyl]-2-(4-methoxyphenyl)pyrrolidine-3-carboxylate]	
100.0	83.3	50.3	CCCCN(CCCC)C(=O)CN1C[C@H](c2ccc3c(c2)OCO3)[C@@H](C(=O)O)[C@@H]1c1ccc(OC)cc1 [Atrasentan, (2R,3R,4S)-4-(benzo[d][1,3]dioxolan-5-yl)-1-[2-(dibutylamino)-2-oxoethyl]-2-(4-methoxyphenyl)pyrrolidine-3-carboxylic acid, reference compound]	

Source: patent US20250320198A1, “SALT OF ENDOTHELIN A (ETA) RECEPTOR ANTAGONIST COMPOUND, AND PREPARATION METHOD THEREFOR AND MEDICAL USE THEREOF” (SHENZHEN SALUBRIS PHARMACEUTICALS CO., LTD, priority 2022, published 2025)
